Values after ≈ are worked out from the molar mass of the structure shown.
Tests used:
[1] = tested on: C. difficile NR-13432 (isolate 6); assay: MIC against C. difficile NR-13432 (isolate 6); format: cell-based; details: for MIC: Clostridioides difficile, read-out: MIC C. difficile NR-13432 (isolate 6)
Experimental: (§1) Bacteria were cultured in cation-adjusted Mueller Hinton Broth (for strains in Tables 1-3) or Brain Heart Infusion broth (for Enterococcus faecium) or Tryptic Soy Broth (all other bacteria) in a 96-well plate at 37° C. for at least 20 hours. The MIC was classified as the lowest concentration where no visual growth of bacteria was observed. The minimum bactericidal concentration (MBC) was tested by spotting 4 μL from wells with no growth onto Tryptic Soy Agar (TSA) plates. Plates were incubated at 37° C. for at least 18 hours before recording the MBC.

[2] = tested on: C. difficile NR-13435 (isolate 9); assay: MIC against C. difficile NR-13435 (isolate 9); format: cell-based; details: for MIC: Clostridioides difficile, read-out: MIC C. difficile NR-13435 (isolate 9)
Experimental: as §1

[3] = tested on: C. difficile NR-32883 (P2); assay: MIC against C. difficile NR-32883 (P2); format: cell-based; details: for MIC: Clostridioides difficile, read-out: MIC C. difficile NR-32883 (P2)
Experimental: as §1

[4] = tested on: C. difficile NR-32891 (P13); assay: MIC against C. difficile NR-32891 (P13); format: cell-based; details: for MIC: Clostridioides difficile, read-out: MIC C. difficile NR-32891 (P13)
Experimental: as §1

[5] = tested on: C. difficile NR-32895 (P19); assay: MIC against C. difficile NR-32895 (P19); format: cell-based; details: for MIC: Clostridioides difficile, read-out: MIC C. difficile NR-32895 (P19)
Experimental: as §1

[6] = tested on: C. difficile NR-32904 (P30); assay: MIC against C. difficile NR-32904 (P30); format: cell-based; details: for MIC: Clostridioides difficile, read-out: MIC C. difficile NR-32904 (P30)
Experimental: as §1

C. difficile ATCC 43255 = assay: MIC against C. difficile ATCC 43255; format: cell-based; details: for MIC: Clostridioides difficile, ATCC43255, read-out: MIC C. difficile ATCC 43255
Experimental: as §1

[7] = tested on: C. difficile ATCC BAA 1801; assay: MIC against C. difficile ATCC BAA 1801; format: cell-based; details: for MIC: Clostridioides difficile, BAA1801, read-out: MIC C. difficile ATCC BAA 1801
Experimental: as §1

MRSA USA300 cells = assay: Time-kill assay; format: cell-based
Experimental: The time-kill analysis was performed as previously described^29. […] Aliquots (100 μL) were collected from each treatment after 0, 2, 4, 8, 12, and 24 hours of incubation at 37° C. and subsequently serially diluted in phosphate-buffered saline (PBS). Bacteria were then transferred to TSA plates and incubated at 37° C. for 18-20 hours before viable CFU/mL was determined (see FIG. 2).

S. aureus = assay: MIC, broth microdilution, S. aureus; format: cell-based; details: Staphylococcus aureus
Experimental: as §1

MRSA ATCC 33592 = assay: MIC, broth microdilution, MRSA ATCC 33592; format: cell-based, methicillin-resistant S. aureus; details: Staphylococcus aureus
Experimental: All MRSA isolates were acquired from BEI Resources. The remaining bacteria were purchased from the American Type Culture Collection (ATCC).
as §1

E. faecalis ATCC 29212 = assay: MIC, broth microdilution, E. faecalis ATCC 29212; format: cell-based; details: Enterococcus faecalis, ATCC29212
Experimental: as §1

VRE ATCC 51575 = assay: MIC, broth microdilution, VRE ATCC 51575; format: cell-based; details: Enterococcus
Experimental: as §1

[8] = tested on: L. monocytogenes ATCC 19115; assay: MIC, broth microdilution, L. monocytogenes ATCC 19115; format: cell-based; details: Listeria monocytogenes, ATCC19115
Experimental: as §1

[9] = tested on: Neisseria gonorrhea strain 181; assay: MIC against Neisseria gonorrhea strain 181; format: cell-based
Experimental: as §1

MIC (S. aureus) | MIC (MRSA ATCC 33592) | MIC (E. faecalis ATCC 29212) | MIC (VRE ATCC 51575) | MIC [8] | MIC [1] | MIC [2] | MIC [3] | MIC [4] | MIC [5] | MIC [6] | MIC (C. difficile ATCC 43255) | MIC [7] | MIC [9] | SMILES | other results
– | – | – | – | – | – | – | – | – | – | – | – | – | – | O=C(Nc1nnc(-c2cccs2)o1)c1ccc(S(=O)(=O)C(F)(F)F)cc1 [HSGN-103] | MIC C. difficile NR-13432 (isolate 6) [1]: 0.5 µg/mL (≈ 1.24 µM); MIC C. difficile NR-13435 (isolate 9) [2]: 0.5 µg/mL (≈ 1.24 µM); MIC C. difficile NR-32883 (P2) [3]: 0.5 µg/mL (≈ 1.24 µM); MIC C. difficile NR-32891 (P13) [4]: 0.5 µg/mL (≈ 1.24 µM); MIC C. difficile NR-32895 (P19) [5]: 0.5 µg/mL (≈ 1.24 µM); MIC C. difficile NR-32904 (P30) [6]: 0.5 µg/mL (≈ 1.24 µM); MIC C. difficile ATCC 43255 (C. difficile ATCC 43255): 0.5 µg/mL (≈ 1.24 µM); MIC C. difficile ATCC BAA 1801 [7]: 0.5 µg/mL (≈ 1.24 µM); Bactericidal/Bacteriostatic (MRSA USA300 cells): Bacteriostatic; Δlog2 CFU/mL (MRSA USA300 cells; MRSA USA300, 3× MIC or 6× MIC, up to 24 hours): 1.04
0.25 µg/mL (≈ 0.577 µM) | 0.25 µg/mL (≈ 0.577 µM) | 1 µg/mL (≈ 2.31 µM) | 0.5 µg/mL (≈ 1.15 µM) | 0.5 µg/mL (≈ 1.15 µM) | 0.125 µg/mL (≈ 0.288 µM) | 0.06 µg/mL (≈ 0.138 µM) | 0.06 µg/mL (≈ 0.138 µM) | 0.125 µg/mL (≈ 0.288 µM) | 0.06 µg/mL (≈ 0.138 µM) | 0.125 µg/mL (≈ 0.288 µM) | 0.25 µg/mL (≈ 0.577 µM) | 0.125 µg/mL (≈ 0.288 µM) | 0.5 µg/mL (≈ 1.15 µM) | O=C(Nc1nnc(-c2ccc(C(F)(F)F)cc2)o1)c1ccc(SC(F)(F)F)cc1 [HSGN-203, N-(5-(4-(trifluoromethyl)phenyl)-1,3,4-oxadiazol-2-yl)-4-((trifluoromethyl)thio)benzamide] | –
0.125 µg/mL (≈ 0.313 µM) | 0.125 µg/mL (≈ 0.313 µM) | 0.25 µg/mL (≈ 0.625 µM) | 0.25 µg/mL (≈ 0.625 µM) | 0.125 µg/mL (≈ 0.313 µM) | 0.03 µg/mL (≈ 0.075 µM) | 0.007 µg/mL (≈ 0.0175 µM) | 0.003 µg/mL (≈ 0.0075 µM) | 0.03 µg/mL (≈ 0.075 µM) | 0.007 µg/mL (≈ 0.0175 µM) | 0.015 µg/mL (≈ 0.0375 µM) | 0.003 µg/mL (≈ 0.0075 µM) | 0.03 µg/mL (≈ 0.075 µM) | 0.25 µg/mL (≈ 0.625 µM) | O=C(Nc1nnc(-c2cccc(Cl)c2)o1)c1ccc(SC(F)(F)F)cc1 [HSGN-204, N-(5-(3-chlorophenyl)-1,3,4-oxadiazol-2-yl)-4-((trifluoromethyl)thio)benzamide] | –
0.5 µg/mL (≈ 1.3 µM) | 0.25 µg/mL (≈ 0.652 µM) | 2 µg/mL (≈ 5.22 µM) | 4 µg/mL (≈ 10.4 µM) | 1 µg/mL (≈ 2.61 µM) | 0.03 µg/mL (≈ 0.0783 µM) | 0.007 µg/mL (≈ 0.0183 µM) | 0.003 µg/mL (≈ 0.00783 µM) | 0.03 µg/mL (≈ 0.0783 µM) | 0.007 µg/mL (≈ 0.0183 µM) | 0.015 µg/mL (≈ 0.0391 µM) | 0.003 µg/mL (≈ 0.00783 µM) | 0.03 µg/mL (≈ 0.0783 µM) | 0.25 µg/mL (≈ 0.652 µM) | O=C(Nc1nnc(-c2cccc(F)c2)o1)c1ccc(SC(F)(F)F)cc1 [HSGN-205, N-(5-(3-fluorophenyl)-1,3,4-oxadiazol-2-yl)-4-((trifluoromethyl)thio)benzamide] | –
0.25 µg/mL (≈ 0.616 µM) | 0.25 µg/mL (≈ 0.616 µM) | 0.5 µg/mL (≈ 1.23 µM) | 0.5 µg/mL (≈ 1.23 µM) | 0.25 µg/mL (≈ 0.616 µM) | 0.015 µg/mL (≈ 0.037 µM) | 0.003 µg/mL (≈ 0.00739 µM) | 0.003 µg/mL (≈ 0.00739 µM) | 0.06 µg/mL (≈ 0.148 µM) | 0.03 µg/mL (≈ 0.0739 µM) | 0.06 µg/mL (≈ 0.148 µM) | 0.007 µg/mL (≈ 0.0172 µM) | 0.06 µg/mL (≈ 0.148 µM) | 0.5 µg/mL (≈ 1.23 µM) | O=C(Nc1nnc(-c2ccc(Cl)s2)o1)c1ccc(SC(F)(F)F)cc1 [HSGN-210, N-(5-(5-chlorothiophen-2-yl)-1,3,4-oxadiazol-2-yl)-4-((trifluoromethyl)thio)benzamide] | –
0.5 µg/mL (≈ 1.13 µM) | 0.5 µg/mL (≈ 1.13 µM) | – | – | – | 0.06 µg/mL (≈ 0.135 µM) | 0.06 µg/mL (≈ 0.135 µM) | 0.06 µg/mL (≈ 0.135 µM) | 0.125 µg/mL (≈ 0.281 µM) | 0.125 µg/mL (≈ 0.281 µM) | 0.125 µg/mL (≈ 0.281 µM) | 0.06 µg/mL (≈ 0.135 µM) | 0.06 µg/mL (≈ 0.135 µM) | 0.25 µg/mL (≈ 0.563 µM) | O=C(Nc1nnc(-c2cccc(Br)c2)o1)c1ccc(SC(F)(F)F)cc1 [HSGN-217, N-(5-(3-bromophenyl)-1,3,4-oxadiazol-2-yl)-4-((trifluoromethyl)thio)benzamide] | –
0.0625 µg/mL (≈ 0.144 µM) | 0.0625 µg/mL (≈ 0.144 µM) | 0.25 µg/mL (≈ 0.576 µM) | 0.25 µg/mL (≈ 0.576 µM) | 0.125 µg/mL (≈ 0.288 µM) | 0.03 µg/mL (≈ 0.0691 µM) | 0.003 µg/mL (≈ 0.00691 µM) | 0.007 µg/mL (≈ 0.0161 µM) | 0.007 µg/mL (≈ 0.0161 µM) | 0.007 µg/mL (≈ 0.0161 µM) | 0.007 µg/mL (≈ 0.0161 µM) | 0.015 µg/mL (≈ 0.0345 µM) | 0.03 µg/mL (≈ 0.0691 µM) | 0.125 µg/mL (≈ 0.288 µM) | O=C(Nc1nnc(-c2cc(Cl)cc(Cl)c2)o1)c1ccc(SC(F)(F)F)cc1 [HSGN-218, N-(5-(3,5-dichlorophenyl)-1,3,4-oxadiazol-2-yl)-4-((trifluoromethyl)thio)benzamide] | –
0.5 µg/mL (≈ 1.25 µM) | 0.5 µg/mL (≈ 1.25 µM) | – | – | – | 0.03 µg/mL (≈ 0.0748 µM) | 0.007 µg/mL (≈ 0.0174 µM) | 0.003 µg/mL (≈ 0.00748 µM) | 0.125 µg/mL (≈ 0.311 µM) | 0.06 µg/mL (≈ 0.15 µM) | 0.06 µg/mL (≈ 0.15 µM) | 0.06 µg/mL (≈ 0.15 µM) | 0.015 µg/mL (≈ 0.0374 µM) | 2 µg/mL (≈ 4.98 µM) | O=C(Nc1nnc(-c2ccc(F)cc2F)o1)c1ccc(SC(F)(F)F)cc1 [HSGN-219, N-(5-(2,4-difluorophenyl)-1,3,4-oxadiazol-2-yl)-4-((trifluoromethyl)thio)benzamide] | –
